The record followed here is patent publication US20190112357A1, “PREVENTION OF PROTEIN DISULFIDE BOND REDUCTION” (MedImmune, LLC, priority 2016, published 2019).

For data set [1], the target named is T1, recombinant mammalian GR/GSSG (Homo sapiens, UniProt P00390).
T1 construct: purchased Abcam
T1 sequence (P00390 44-522): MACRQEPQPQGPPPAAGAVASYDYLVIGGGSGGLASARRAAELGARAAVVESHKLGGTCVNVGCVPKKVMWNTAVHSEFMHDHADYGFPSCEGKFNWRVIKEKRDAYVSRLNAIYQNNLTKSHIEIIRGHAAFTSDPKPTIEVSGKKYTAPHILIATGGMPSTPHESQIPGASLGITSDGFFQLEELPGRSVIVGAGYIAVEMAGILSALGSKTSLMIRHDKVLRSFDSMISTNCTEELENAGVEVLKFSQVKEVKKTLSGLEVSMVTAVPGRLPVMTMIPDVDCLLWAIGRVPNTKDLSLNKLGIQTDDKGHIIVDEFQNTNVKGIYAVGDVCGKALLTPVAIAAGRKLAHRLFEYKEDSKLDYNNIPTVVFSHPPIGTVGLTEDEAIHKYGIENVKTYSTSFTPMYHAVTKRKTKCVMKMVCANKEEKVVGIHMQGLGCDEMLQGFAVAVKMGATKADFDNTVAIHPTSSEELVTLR
The data set can be described thus: Reduction of purified mAb B by recombinant GR/GSSG, capillary electrophoresis. In kind it is biochemical. The protocol: (§1) Antibody reduction in cell culture supernatant samples was measured by detecting the presence of reduced species via capillary electrophoresis using standard procedures on a 2100 Bioanalyzer system (Agilent Technologies, Santa Clara, Calif.). Samples were diluted 1-6 fold depending on titer and analyzed under non-reducing conditions following 2100 Bioanalyzer standard protocols. Supernatant samples from 3 L bioreactors were stored frozen until all samples had been acquired and were ready for analysis. Samples were thawed on ice and analyzed immediately to evaluate the amount of reduced antibody in the reactor on each day of the run.
Using the same approach with recombinant mammalian enzymes, the glutathione system was evaluated by spiking mAb B into five solutions containing: 1) no enzyme, 2) 1 mM GSSG (oxidized glutathione), 3) 0.2 μM GR (glutathione reductase), 4) 0.2 μM GR with 1 mM GSSG, and 5) 0.02 μM GR with 1 mM GSSG. […] The results indicated a minimal mAb B reduction in the solutions containing GSSG alone. This is the result of an impurity in the GSSG. […] was reduced in the solutions containing both GR and GSSG.
(§2) To confirm that the activity from a particular reductase system can translate into reduced antibody, a second method was developed to determine the impact of each reductase system on antibody reduction. The principle of the reduction assay is similar to the reductase activity assay described above. The percent of protein reduction without an inhibitor was compared to the percent of protein reduction in the presence of specific inhibitors for GR or TrxR1. In this assay, purified mAb B was spiked into solutions containing recombinant mammalian TrxR1/Trx1 or recombinant mammalian GR/GSSG and stored in an oxygen-free environment overnight. The percent of reduced mAb B antibody was evaluated using capillary electrophoresis, as set forth above.

The target of a further data set is T2, recombinant TrxR1/Trx1 (Rattus norvegicus, UniProt O89049).
T2 sequence (O89049 1-499): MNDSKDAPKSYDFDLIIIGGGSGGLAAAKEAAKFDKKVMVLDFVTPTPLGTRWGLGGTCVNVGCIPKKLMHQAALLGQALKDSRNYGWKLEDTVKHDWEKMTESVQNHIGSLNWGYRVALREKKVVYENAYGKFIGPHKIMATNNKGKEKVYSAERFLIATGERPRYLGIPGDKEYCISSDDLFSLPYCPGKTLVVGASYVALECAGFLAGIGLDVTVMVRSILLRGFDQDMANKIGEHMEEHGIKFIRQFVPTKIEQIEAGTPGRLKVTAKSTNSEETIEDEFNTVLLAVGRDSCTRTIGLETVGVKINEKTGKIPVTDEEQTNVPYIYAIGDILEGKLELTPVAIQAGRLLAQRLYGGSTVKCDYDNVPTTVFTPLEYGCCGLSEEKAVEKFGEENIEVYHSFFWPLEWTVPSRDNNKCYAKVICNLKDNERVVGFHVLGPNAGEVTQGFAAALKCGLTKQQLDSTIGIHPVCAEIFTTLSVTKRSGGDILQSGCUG
The data set can be described thus: DTNB reductase activity assay, recombinant TrxR1/Trx1. To be noted: ATG concentrations higher than 0.1 μM.

Data set [2] relates to TrxR1 purified from CHO cell cultures. Nature of the data set: mAb B reduction by pooled CHO fractions with NADPH and Trx1. To be noted: 3 μM Cu^2+ or 100 μM ATG, overnight room temperature. The class given is biochemical, Chinese Hamster. The procedure: Purified mAb B was spiked into several solutions containing different combinations of the pooled fractions (PF), recombinant Trx1, GSSG, NADPH, ATG, and Cu^2+. The solutions were incubated at room temperature overnight and the amount of intact antibody remaining was determined by capillary electrophoresis according to the protocol described above. In the first set of samples, purified mAb B was spiked into the pooled fractions with, and without, NADPH.
The third set of solutions contained the pooled enzymes, NADPH, Trx1, and either no inhibitor, 3 μM Cu^2+, or 100 μM ATG. […] In the final sample as a control, mAb B was spiked into a solution containing NADPH, Trx1, and GSSG.

Data set [3] has as its target T3, recombinant mammalian TrxR1/Trx1 (Rattus norvegicus, UniProt O89049).
T3 construct: purchased Cayman Chemical (TrxR1); Abcam (Trx1)
T3 sequence (O89049 1-499): T2 sequence (O89049 1-499)
Nature of the data set: Reduction of purified mAb B by recombinant TrxR1/Trx1, capillary electrophoresis. In kind it is biochemical, human (Trx1). To be noted: 0.1 mM ATG, purified mAb B, overnight, oxygen-free. The protocol:
as §1
The role of each enzymatic system in antibody reduction was evaluated by determining the conditions under which these reductase systems cause antibody reduction. Using purified recombinant mammalian reductases, the thioredoxin system was evaluated by spiking purified mAb B into five solutions containing: 1) no enzymes, 2) 1 μM TrxR1, 3) 0.1 μM TrxR1, 4) […], and 5) 0.1 μM TrxR1+2.5 μM Trx1. All samples contained 0.4 mM NADPH and were stored at room temperature overnight. Digital gel-like images were obtained from microchip-based capillary electrophoresis analysis.
as §2

For `OC[C@H]1O[C@H]([S-])[C@H](O)[C@@H](O)[C@@H]1O.[Au+]` [ATG, aurothioglucose], the “antibody reduction in sample containing GR/GSSG” value in data set [1] (0.1 mM ATG, purified mAb B, overnight, oxygen-free) is listed as “complete reduction of the antibody”. Moreover, in data set [1] (0.5 mM and 1 mM ATG, increasing intact antibody), the “specificity in GR/GSSG samples at higher concentrations” value was “no longer specific for the thioredoxin system”. Further, at recombinant TrxR1/Trx1, the TrxR1/Trx1 reductase activity result is “negligible”. For the same compound, the “antibody reduction in pooled enzymes, NADPH, Trx1” value in data set [2] is reported as “completely prevented reduction”. For the same compound, the “antibody reduction in sample containing TrxR1/Trx1” value in data set [3] was “complete inhibition of antibody reduction”.
